The test concerns the target T1, human hNET (Homo sapiens, UniProt P23975).
T1 construct: expressed in transfected cells; host or cells: MDCK-Net6 (MDCK cells, stably transfected)
Put plainly: Norepinephrine (NE) uptake assay in MDCK-Net6 cells. The format is cell-based. The note with it: 1 μM test compound, [3H]NE uptake, read-out: % Inhibition @ 1 μM (hNET). Summed up: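 Radiolabelled NE uptake was counted by scintillation after NaOH lysis, with 1 µM desipramine defining non-specific uptake. EC50 came from a logistic dose-response fit.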

Structures can show the parent of a compound that is named as a salt.

A word on the inhibition: it is the share of the control response that was lost under treatment.

T1 sequence (P23975 whole entry): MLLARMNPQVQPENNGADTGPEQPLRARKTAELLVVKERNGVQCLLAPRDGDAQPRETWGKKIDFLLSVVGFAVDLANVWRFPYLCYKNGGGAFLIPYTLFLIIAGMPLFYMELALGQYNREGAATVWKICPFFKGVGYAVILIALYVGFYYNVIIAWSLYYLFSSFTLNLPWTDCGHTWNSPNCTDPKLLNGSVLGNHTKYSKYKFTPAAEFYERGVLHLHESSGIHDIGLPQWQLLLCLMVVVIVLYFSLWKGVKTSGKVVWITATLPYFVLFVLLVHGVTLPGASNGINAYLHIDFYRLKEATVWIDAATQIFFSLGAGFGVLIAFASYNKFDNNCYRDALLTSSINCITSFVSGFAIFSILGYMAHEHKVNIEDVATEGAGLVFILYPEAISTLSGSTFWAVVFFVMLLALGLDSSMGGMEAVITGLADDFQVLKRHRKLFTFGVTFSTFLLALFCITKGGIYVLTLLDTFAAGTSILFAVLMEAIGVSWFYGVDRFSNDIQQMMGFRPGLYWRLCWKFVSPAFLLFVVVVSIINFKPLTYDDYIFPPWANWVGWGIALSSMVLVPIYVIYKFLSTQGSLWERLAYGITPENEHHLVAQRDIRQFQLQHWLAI

For `C[C@H](Oc1ccc(C(CN2CCN(C)CC2)C2(O)CCCCC2)cc1)c1ccccc1` (stereo partly drawn) [Example 470, 1-(2-(4-methylpiperazin-1-yl)-1-{4-[(1S)-1-phenylethoxy]phenyl}ethyl)cyclohexanol dihydrochloride], the inhibition at 1 µM was 14%.

Values taken from patent publication US7550456B2, “Substituted aryl cycloalkanoyl derivatives and methods of their use” (Wyeth, priority 2003, dated 2009).
